The values below come from ChEMBL document CHEMBL5126552, “Discovery of small-molecule compounds and natural products against Parkinson's disease: Pathological mechanism and structural modification” (Eur J Med Chem, 2022).

By Ki is commonly meant the dissociation constant of the complex between target and ligand, obtained from inhibition or displacement. The term bioavailability denotes the share of a dose that reaches the circulation, judged against a reference dose that is usually intravenous. Read a low bioavailability as little systemic uptake. By half-life is commonly meant how long it takes for the measured level to halve. The term IC50 denotes the concentration that inhibits the measured activity by half. Low values mean greater potency in that assay, high ones weaker potency in that assay. Broadly, the EC50 is the concentration at which the effect is half-maximal. A word on the CLint scaled: it is the rate of metabolic loss divided by the concentration.

Series [1] concerns the target Adenosine receptor A2a (Rattus norvegicus, UniProt P30543). Put plainly: Antagonist activity at rat adenosine A2A receptor.
In series [2] the target is T1, Adenosine receptor A1 (Rattus norvegicus, UniProt P25099).
T1 sequence (P25099 whole entry): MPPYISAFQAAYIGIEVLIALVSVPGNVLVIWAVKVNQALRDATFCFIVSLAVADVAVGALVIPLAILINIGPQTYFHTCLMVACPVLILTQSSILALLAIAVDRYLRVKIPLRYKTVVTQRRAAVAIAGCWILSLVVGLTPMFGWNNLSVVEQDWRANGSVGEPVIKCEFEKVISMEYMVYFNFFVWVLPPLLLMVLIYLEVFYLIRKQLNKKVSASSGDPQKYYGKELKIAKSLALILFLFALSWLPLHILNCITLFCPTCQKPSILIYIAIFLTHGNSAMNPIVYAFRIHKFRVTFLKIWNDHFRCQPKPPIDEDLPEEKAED
Put plainly: Antagonist activity at rat adenosine A1 receptor.

The nature of series [3]: in vivo. The settings on record: rat, po, 3 mg/kg.
The nature of series [4]: Half life in rat at 3 mg/kg,po. The following applies: in vivo.
Series [5] can be described thus: Inhibition of Monoamine oxidase in MPTP-induced C57BL/6 mouse assessed as inhibition constant.
Series [6] is described as follows: Inhibition of c-Jun phosphorylation in streptozotocin stimulated rat INS1 cells using TMB as substrate incubated for 16 hrs by microplate reader assay. The settings on record: INS1, 16 h.
Series [7] in a line: Agonist activity at D2 receptor in mouse MN9D cells assessed as increase in GTPgammaS binding. Background: GTPγS resists hydrolysis and so accumulates on activated G proteins.
A short description of series [8]: Agonist activity at D3 receptor in mouse MN9D cells assessed as increase in GTPgammaS binding.
Series [9] is described as follows: in vivo. The following applies: rat, po, 15 mg/kg.
Description: Oral bioavailability in 6-OHDA-unilateral lesioned rat model of Parkinson's disease at 15 mg/kg
Series [10] can be described thus: Agonist activity at rat mGlu4 receptor assessed as increase in calcium flux. In general terms: Calcium assays in cells follow changes in intracellular calcium, usually with a dye or a luminescent sensor.
A short description of series [11]: animal or person. The settings on record: Mus musculus, po, 6 h, read-out: INH.
Series [12] addresses Adenosine receptor A2a (Homo sapiens, UniProt P29274). Put plainly: Antagonist activity at human adenosine A2A receptor.
Series [13] deals with T2, Adenosine receptor A1 (Homo sapiens, UniProt P30542).
T2 sequence (P30542 whole entry): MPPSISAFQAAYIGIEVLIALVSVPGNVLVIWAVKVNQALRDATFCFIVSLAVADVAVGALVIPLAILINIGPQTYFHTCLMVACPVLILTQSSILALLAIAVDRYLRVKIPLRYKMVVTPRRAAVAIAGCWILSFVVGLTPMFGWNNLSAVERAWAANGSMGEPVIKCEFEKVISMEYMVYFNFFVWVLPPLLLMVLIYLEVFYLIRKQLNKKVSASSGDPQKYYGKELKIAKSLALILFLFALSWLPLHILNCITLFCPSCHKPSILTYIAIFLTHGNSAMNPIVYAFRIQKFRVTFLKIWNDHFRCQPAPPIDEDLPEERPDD
Description: Antagonist activity at human adenosine A1 receptor

A short description of series [14]: Drug concentration in 6-OHDA-unilateral lesioned mouse model of Parkinson's disease assessed as brain concentration at 50 mg/kg,ip measured after 4 hrs.
Series [15] in a line: Plasma concentration in 6-OHDA-unilateral lesioned mouse model of Parkinson's disease at 50 mg/kg,ip measured after 4 hrs.
Series [16] concerns the target T3, D(2) dopamine receptor (Homo sapiens, UniProt P14416).
Description: Agonist activity at dopamine D2 receptor (unknown origin)
Series [17] deals with T4, D(3) dopamine receptor (Homo sapiens, UniProt P35462). Put plainly: Agonist activity at dopamine D3 receptor (unknown origin).
The target of series [18] is T5, Amine oxidase [flavin-containing] B (Homo sapiens, UniProt P27338).
T5 sequence (P27338 whole entry): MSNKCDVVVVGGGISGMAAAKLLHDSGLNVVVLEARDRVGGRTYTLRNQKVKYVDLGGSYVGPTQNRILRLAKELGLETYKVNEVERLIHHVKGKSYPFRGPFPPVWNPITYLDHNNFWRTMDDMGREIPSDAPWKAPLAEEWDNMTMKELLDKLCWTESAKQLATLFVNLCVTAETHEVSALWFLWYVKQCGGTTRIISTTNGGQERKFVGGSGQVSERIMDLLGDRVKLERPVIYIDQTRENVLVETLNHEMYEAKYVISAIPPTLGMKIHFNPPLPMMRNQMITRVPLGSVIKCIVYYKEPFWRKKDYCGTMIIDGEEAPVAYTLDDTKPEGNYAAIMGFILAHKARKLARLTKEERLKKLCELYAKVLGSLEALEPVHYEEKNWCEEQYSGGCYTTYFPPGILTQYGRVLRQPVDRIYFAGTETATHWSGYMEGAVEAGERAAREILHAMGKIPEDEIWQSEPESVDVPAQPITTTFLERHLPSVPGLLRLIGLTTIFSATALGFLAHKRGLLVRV
Put plainly: Inhibition of human MAO-B.

A short description of series [19]: Displacement of [3H]-SCH23390 from D1 receptor in rat striatum incubated for 30 mins by competitive radioligand binding based scintillation counter analysis.
The nature of series [20]: Displacement of [3H]-spiperone from D2 receptor in rat striatum incubated for 90 mins by competitive radioligand binding based scintillation counter analysis. In general terms: Displacement assays read how much labelled ligand stays bound in the presence of the test substance.
The nature of series [21]: Metabolic stability at human liver microsomes assessed as intrinsic clearance.
A short description of series [22]: Metabolic stability at human liver microsomes assessed as half life.
Series [23] deals with T3, D(2) dopamine receptor. The source holds these as a separate data set.
The target in series [24] is T4, D(3) dopamine receptor. Put plainly: Agonist activity at dopamine D3 receptor (unknown origin) assessed as increase in GTPgammaS binding.

Bounds are passed on as bounds.

T3 sequence (P14416 whole entry): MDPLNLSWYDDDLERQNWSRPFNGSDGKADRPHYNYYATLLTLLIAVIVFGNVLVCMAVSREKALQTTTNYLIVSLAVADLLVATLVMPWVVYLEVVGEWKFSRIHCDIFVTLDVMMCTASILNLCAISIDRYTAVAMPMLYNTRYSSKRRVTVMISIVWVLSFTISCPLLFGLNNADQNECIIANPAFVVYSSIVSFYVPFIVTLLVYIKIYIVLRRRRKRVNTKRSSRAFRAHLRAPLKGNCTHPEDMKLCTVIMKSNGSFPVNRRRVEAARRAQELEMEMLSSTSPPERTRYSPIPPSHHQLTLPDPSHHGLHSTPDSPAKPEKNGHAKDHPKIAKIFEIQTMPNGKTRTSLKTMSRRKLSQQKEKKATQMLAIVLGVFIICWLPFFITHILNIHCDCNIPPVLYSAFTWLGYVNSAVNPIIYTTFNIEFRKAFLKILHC
Chain of Adenosine receptor A2a (Rattus norvegicus, UniProt P30543) (P30543 whole entry): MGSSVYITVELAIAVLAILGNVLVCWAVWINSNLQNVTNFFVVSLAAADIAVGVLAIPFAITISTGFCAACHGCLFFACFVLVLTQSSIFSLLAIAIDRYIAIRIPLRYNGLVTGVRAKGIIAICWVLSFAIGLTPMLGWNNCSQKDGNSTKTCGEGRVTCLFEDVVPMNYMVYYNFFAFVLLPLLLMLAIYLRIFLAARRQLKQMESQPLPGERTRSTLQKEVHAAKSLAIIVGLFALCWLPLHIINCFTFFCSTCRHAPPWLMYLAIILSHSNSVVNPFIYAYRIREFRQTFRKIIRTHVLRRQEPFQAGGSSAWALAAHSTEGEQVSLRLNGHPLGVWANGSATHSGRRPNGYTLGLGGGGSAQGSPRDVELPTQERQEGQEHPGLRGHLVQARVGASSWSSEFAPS
T4 sequence (P35462 whole entry): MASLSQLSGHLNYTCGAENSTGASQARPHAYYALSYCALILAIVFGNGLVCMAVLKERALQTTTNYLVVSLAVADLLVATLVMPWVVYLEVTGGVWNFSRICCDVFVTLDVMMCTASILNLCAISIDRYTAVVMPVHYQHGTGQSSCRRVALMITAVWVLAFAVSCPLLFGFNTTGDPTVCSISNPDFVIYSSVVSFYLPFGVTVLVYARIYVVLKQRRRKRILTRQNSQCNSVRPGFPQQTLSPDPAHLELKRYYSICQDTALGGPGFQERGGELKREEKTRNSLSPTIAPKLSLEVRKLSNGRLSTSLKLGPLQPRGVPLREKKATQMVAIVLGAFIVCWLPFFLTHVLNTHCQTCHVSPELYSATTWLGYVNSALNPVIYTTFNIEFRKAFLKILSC
Chain of Adenosine receptor A2a (Homo sapiens, UniProt P29274) (P29274 whole entry): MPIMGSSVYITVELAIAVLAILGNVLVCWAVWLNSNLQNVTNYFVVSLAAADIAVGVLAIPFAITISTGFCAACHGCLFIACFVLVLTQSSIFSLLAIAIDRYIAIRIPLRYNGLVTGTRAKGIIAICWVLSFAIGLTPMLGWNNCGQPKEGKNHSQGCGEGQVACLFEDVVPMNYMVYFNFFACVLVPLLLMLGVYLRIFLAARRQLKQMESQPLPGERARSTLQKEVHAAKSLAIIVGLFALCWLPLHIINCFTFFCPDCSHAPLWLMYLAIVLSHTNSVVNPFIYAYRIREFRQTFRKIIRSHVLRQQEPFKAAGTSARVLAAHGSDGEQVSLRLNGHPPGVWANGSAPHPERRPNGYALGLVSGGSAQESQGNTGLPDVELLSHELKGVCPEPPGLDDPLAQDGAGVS

As for `Nc1nc(NC[C@H]2CCCN2Cc2ccnc(Cl)c2)nc2nc(-c3ccco3)nn12`, the values for the Ki in series [1] and in [2] were 10 nM and more than 250 nM, respectively. In [3], `Cn1nc(C(F)(F)F)c(CN2CCN(c3nc(N)n4nc(-c5ccco5)nc4n3)CC2)c1Cl` displayed a bioavailability of 7%. Further, the half-life in [4] was 30 min. For the compound `CC1=C(C)C(=O)c2cc(C)ccc2C1=O`, the Ki in series [5] worked out at 6000 nM. In turn, `Cc1ccc(-c2ncn(-c3ccc(Nc4nccc(-c5cccc(N6CCOCC6)c5)n4)cc3)n2)cn1` showed an IC50 in series [6] of 216 nM.

Turning to `CCCN(CCN1CCN(C(=O)c2cc3ccccc3[nH]2)CC1)[C@H]1CCc2nc(N)sc2C1`, the half-maximal effective concentration (EC50) was 2.96 nM in series [7] and 1.26 nM in series [8]. As to `Cc1ccc(-c2cc(-c3cccc(C(=O)N4CCCCC4)c3)nc(N)n2)o1`, the Ki in [1] was determined as 9.54 nM; in [2] it was 6.34 nM. In series [9], `Fc1ccc(Nc2n[nH]c3cccnc23)cc1Cl` showed a bioavailability of 95%. The EC50 in series [10] stood at 46 nM. For the compound `O=C(CCN1CCN(c2cccc(C(F)(F)F)c2)CC1)c1cc(O)c(O)c([N+](=O)[O-])c1`, the inhibition in vivo at 30 mg/kg in [11] turned out to be 74%. Take `Nc1nc(N2CCN3CCC[C@@H]3C2)cc2nc(-c3ccco3)nn12`: the values for the Ki in [12] and in [13] were 63 nM and 1100 nM, respectively. In the case of `Cc1cc(Oc2nccc3occc23)ccc1-c1c(C)c(=O)[nH]c(=O)n1C`, the concentration at 4 h in series [14] and in [15] was 100 µM in each case.

As to `CCCN(CCN1CCN(c2ccccc2)CC1)[C@H]1CCc2ccc(O)cc2C1`, the EC50 is 9.98 nM in series [16] and 2.91 nM in series [17].

As to `COC[C@H]1CCCN1c1cc(Nc2ccccn2)nc(-n2cccn2)n1`, the Ki in [12] is 0.22 nM. Turning to `CCCN(CCN1CCN(c2ccc3[nH]ccc3c2Cl)CC1)[C@H]1CCc2nc(N)sc2C1`, the values for the concentration for a half-maximal effect (EC50) in [7] and in series [8] were 114 nM and 0.26 nM, respectively. Regarding `C/C(=N\NC(=O)c1cc(-c2ccccc2)on1)c1ccc(C)cc1`, 5.1 nM corresponded to half-maximal inhibition in series [18] (IC50). Turning to `CCCN1CCC[C@H]2c3[nH]c4ccccc4c3CC[C@@H]21`, the Ki was 19.8 nM in [19] and 1.31 nM in series [20]. In turn, `Cc1cccc(Nc2nc(NCCCO)nc3c2cnn3-c2ccccc2)c1` yielded a Ki in series [13] of more than 540 nM. Turning to `CO[C@@H]1CCN(c2cccc(-c3nc(-n4nc(C)cc4C)nc(N)c3C#N)n2)C1`, the intrinsic metabolic clearance (CLint scaled) in series [21] is 34 mL/min/kg. The half-life in [22] stood at 53 min.

Regarding `CNCc1cc(=O)oc2c(O)c(O)ccc12`, the IC50 in [18] was found to be 12400 nM. As to `CCCN(CCN1CCN(c2ccc(-c3ccccn3)nc2)CC1)[C@H]1CCc2nc(N)sc2C1`, the EC50 in series [16] came out at 51.6 nM. As for `CCCN(CCN1CCN(c2ccc3c(c2)[nH]c2ccccc23)CC1)[C@H]1CCc2c(O)cccc2C1`, the concentration for a half-maximal effect (EC50) stood at 0.23 nM in [23] and 0.87 nM in [24]. Turning to `C#CCN1CCC[C@H]2c3[nH]c4ccccc4c3CC[C@@H]21`, the Ki amounted to 2.15 nM in [19] and 1.09 nM in series [20]. In turn, `COc1ccc(/C(C)=N/NC(=O)c2cc(-c3ccccc3)on2)cc1OC` showed a 50% inhibitory concentration (IC50) in series [18] of 5.9 nM.
